From patent publication US7902373B2 (Pfizer Inc, priority 2006, dated 2011)

These compounds were tested against human recombinant H-PGDS (Homo sapiens, UniProt O60760) (assay: Fluorescence intensity h-PGDS TBA enzyme assay). Details: Examples up to 622 (and 3a, 3b).
Type: biochemical

Sequence of human recombinant H-PGDS (O60760 whole entry): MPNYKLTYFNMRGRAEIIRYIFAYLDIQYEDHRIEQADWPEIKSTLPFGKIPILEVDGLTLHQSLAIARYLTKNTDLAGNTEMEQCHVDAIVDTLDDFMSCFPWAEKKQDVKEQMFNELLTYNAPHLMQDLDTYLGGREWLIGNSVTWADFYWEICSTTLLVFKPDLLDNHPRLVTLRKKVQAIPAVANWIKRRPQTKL

IC50	Compound
1.08 nM	O=C(NC1CCN(CCCC(F)(F)F)CC1)c1ccc(-c2cccc(F)c2)nc1 [Example 312, 6-(3-Fluorophenyl)-N-[1-(4,4,4-trifluorobutyl)piperidin-4-yl]nicotinamide]
2.15 nM	O=C(NC1CCN(Cc2ccc3c(c2)CCO3)CC1)c1ccc(-c2cccc(F)c2)nc1 [Example 313, N-[1-(2,3-Dihydro-1-benzofuran-5-ylmethyl)piperidin-4-yl]-6-(3-fluorophenyl)nicotinamide]
0.24 nM	Cn1nc(C(F)(F)F)c(CN2CCC(NC(=O)c3ccc(-c4cccc(F)c4)nc3)CC2)c1Cl [Example 314, N-(1-{[5-Chloro-1-methyl-3-(trifluoromethyl)-1H-pyrazol-4-yl]methyl}piperidin-4-yl)-6-(3-fluorophenyl)nicotinamide]
0.549 nM	O=C(NC1CCN(Cc2cccc(OC(F)F)c2)CC1)c1ccc(-c2cccc(F)c2)nc1 [Example 315, N-{1-[3-(Difluoromethoxy)benzyl]piperidin-4-yl}-6-(3-fluorophenyl)nicotinamide]
1.36 nM	CCOc1c(CN2CCC(NC(=O)c3ccc(-c4cccc(F)c4)nc3)CC2)cccc1OC [Example 316, N-[1-(2-Ethoxy-3-methoxybenzyl)piperidin-4-yl]-6-(3-fluorophenyl)nicotinamide]
2.07 nM	O=C(NC1CCN(Cc2ccc(C(F)(F)F)nc2)CC1)c1ccc(-c2cccc(F)c2)nc1 [Example 317, 6-(3-Fluorophenyl)-N-(1-{[6-(trifluoromethyl)pyridin-3-yl]methyl}piperidin-4-yl)nicotinamide]
1.18 nM	Cc1ccc(CN2CCC(NC(=O)c3ccc(-c4cccc(F)c4)nc3)CC2)c(F)c1F [Example 318, N-[1-(2,3-Difluoro-4-methylbenzyl)piperidin-4-yl]-6-(3-fluorophenyl)nicotinamide]
0.384 nM	Cc1nn(C)c(Cl)c1CN1CCC(NC(=O)c2ccc(-c3cccc(F)c3)nc2)CC1 [Example 319, N-{1-[(5-Chloro-1,3-dimethyl-1H-pyrazol-4-yl)methyl]piperidin-4-yl}-6-(3-fluorophenyl)nicotinamide]
2.34 nM	O=C(NC1CCN(Cc2c[nH]c(-c3ccccc3)n2)CC1)c1ccc(-c2cccc(F)c2)nc1 [Example 320, 6-(3-Fluorophenyl)-N-{1-[(2-phenyl-1H-imidazol-4-yl)methyl]piperidin-4-yl}nicotinamide]
0.365 nM	Cn1cc(Br)c(CN2CCC(NC(=O)c3ccc(-c4cccc(F)c4)nc3)CC2)n1 [Example 321, N-{1-[(4-Bromo-1-methyl-1H-pyrazol-3-yl)methyl]piperidin-4-yl}-6-(3-fluorophenyl)nicotinamide]
0.748 nM	COc1ccc(CCCN2CCC(NC(=O)c3ccc(-c4cccc(F)c4)nc3)CC2)cc1 [Example 322, 6-(3-Fluorophenyl)-N-{1-[3-(4-methoxyphenyl)propyl]piperidin-4-yl}nicotinamide]
0.622 nM	COc1ccc(F)c(CN2CCC(NC(=O)c3ccc(-c4cccc(F)c4)nc3)CC2)c1 [Example 323, N-[1-(2-Fluoro-5-methoxybenzyl)piperidin-4-yl]-6-(3-fluorophenyl)nicotinamide]
0.531 nM	COc1ccc(CN2CCC(NC(=O)c3ccc(-c4cccc(F)c4)nc3)CC2)c(F)c1 [Example 324, N-[1-(2-Fluoro-4-methoxybenzyl)piperidin-4-yl]-6-(3-fluorophenyl)nicotinamide]
4.01 nM	CCCCCN1CCC(NC(=O)c2ccc(-c3cccc(F)c3)nc2)CC1 [Example 325, 6-(3-Fluorophenyl)-N-(1-pentylpiperidin-4-yl)nicotinamide]
2.45 nM	CC(C)Oc1ccccc1CN1CCC(NC(=O)c2ccc(-c3cccc(F)c3)nc2)CC1 [Example 326, 6-(3-Fluorophenyl)-N-[1-(2-isopropoxybenzyl)piperidin-4-yl]nicotinamide]
1.55 nM	COCc1cc(CN2CCC(NC(=O)c3ccc(-c4cccc(F)c4)nc3)CC2)ccc1OC [Example 327, 6-(3-Fluorophenyl)-N-{1-[4-methoxy-3-(methoxymethyl)benzyl]piperidin-4-yl}nicotinamide]
0.566 nM	Cc1nn(C)cc1CN1CCC(NC(=O)c2ccc(-c3cccc(F)c3)nc2)CC1 [Example 328, N-{1-[(1,3-Dimethyl-1H-pyrazol-4-yl)methyl]piperidin-4-yl}-6-(3-fluorophenyl)nicotinamide]
1.94 nM	CCn1ncc(CN2CCC(NC(=O)c3ccc(-c4cccc(F)c4)nc3)CC2)c1C [Example 329, N-{1-[(1-Ethyl-5-methyl-1H-pyrazol-4-yl)methyl]piperidin-4-yl}-6-(3-fluorophenyl)nicotinamide]
1.71 nM	O=C(NC1CCN(Cc2ccc(-c3ncccn3)cc2)CC1)c1ccc(-c2cccc(F)c2)nc1 [Example 330, 6-(3-Fluorophenyl)-N-[1-(4-pyrimidin-2-ylbenzyl)piperidin-4-yl]nicotinamide]
2.71 nM	O=C(NC1CCN(Cc2cc(F)cc(F)c2F)CC1)c1ccc(-c2cccc(F)c2)nc1 [Example 331, 6-(3-Fluorophenyl)-N-[1-(2,3,5-trifluorobenzyl)piperidin-4-yl]nicotinamide]

IC50	Compound
1.19 nM	O=C(NC1CCN(Cc2cc(F)c(F)c(F)c2)CC1)c1ccc(-c2cccc(F)c2)nc1 [Example 332, 6-(3-fluorophenyl)-N-[1-(345-trifluorobenzyl)piperidin-4-yl]nicotinamide]
1.04 nM	CC(C)(C)OC(=O)N1CCCC(CN2CCC(NC(=O)c3ccc(-c4cccc(F)c4)nc3)CC2)C1 (stereo not drawn) [Example 333, tert-Butyl 3-{[4-({[6-(3-fluorophenyl)pyridin-3-yl]carbonyl}amino)piperidin-1-yl]methyl}piperidine-1-carboxylate]
2.74 nM	CC(C)(C)OC(=O)NC1(CN2CCC(NC(=O)c3ccc(-c4cccc(F)c4)nc3)CC2)CCC1 [Example 334, tert-Butyl (1-{[4-({[6-(3-fluorophenyl)pyridin-3-yl]carbonyl}amino)piperidin-1-yl]methyl}cyclobutyl)carbamate]
0.776 nM	Cc1nn(-c2ccccc2)c(C)c1CN1CCC(NC(=O)c2ccc(-c3cccc(F)c3)nc2)CC1 [Example 335, N-{1-[(3,5-Dimethyl-1-phenyl-1H-pyrazol-4-yl)methyl]piperidin-4-yl}-6-(3-fluorophenyl)nicotinamide]
1.82 nM	CC(CCCC(C)(C)O)CCN1CCC(NC(=O)c2ccc(-c3cccc(F)c3)nc2)CC1 (stereo not drawn) [Example 336, 6-(3-Fluorophenyl)-N-[1-(7-hydroxy-3,7-dimethyloctyl)piperidin-4-yl]nicotinamide]
1.42 nM	O=C(NC1CCN(Cc2nc3ccccc3[nH]2)CC1)c1ccc(-c2cccc(F)c2)nc1 [Example 337, N-[1-(1H-Benzimidazol-2-ylmethyl)piperidin-4-yl]-6-(3-fluorophenyl)nicotinamide]
62.7 nM	CCOc1ccc2nc(CN3CCC(NC(=O)c4ccc(-c5cccc(F)c5)nc4)CC3)ccc2c1 [Example 338]
1.17 nM	COC(=O)Cn1cc(CN2CCC(NC(=O)c3ccc(-c4cccc(F)c4)nc3)CC2)c2ccccc21 [Example 339, Methyl (3-{[4-({[6-(3-fluorophenyl)pyridin-3-yl]carbonyl}amino)piperidin-1-yl]methyl}-1H-indol-1-yl)acetate]
1.17 nM	O=C(NC1CCN(Cc2nc3c(s2)CCCC3)CC1)c1ccc(-c2cccc(F)c2)nc1 [Example 340, 6-(3-Fluorophenyl)-N-[1-(4,5,6,7-tetrahydro-1,3-benzothiazol-2-ylmethyl)piperidin-4-yl]nicotinamide]
0.485 nM	O=C(NC1CCN(CC2=Cc3ccccc3OC2)CC1)c1ccc(-c2cccc(F)c2)nc1 [Example 341, N-[1-(2H-Chromen-3-ylmethyl)piperidin-4-yl]-6-(3-fluorophenyl)nicotinamide]
0.281 nM	O=C(NC1CCN(Cc2ccccc2-c2cncnc2)CC1)c1ccc(-c2cccc(F)c2)nc1 [Example 342, 6-(3-Fluorophenyl)-N-[1-(2-pyrimidin-5-ylbenzyl)piperidin-4-yl]nicotinamide]
1.9 nM	O=C(NC1CCN(Cc2cccn3cc(Br)nc23)CC1)c1ccc(-c2cccc(F)c2)nc1 [Example 343, N-{1-[(2-Bromoimidazo[1,2-a]pyridin-8-yl)methyl]piperidin-4-yl}-6-(3-fluorophenyl)nicotinamide]
0.174 nM	Cc1onc(-c2ccccc2)c1CN1CCC(NC(=O)c2ccc(-c3cccc(F)c3)nc2)CC1 [Example 344, 6-(3-Fluorophenyl)-N-{1-[(5-methyl-3-phenylisoxazol-4-yl)methyl]piperidin-4-yl}nicotinamide]
0.508 nM	CC(C)(C)OC(=O)N1CCC(CN2CCC(NC(=O)c3ccc(-c4cccc(F)c4)nc3)CC2)C1 (stereo not drawn) [Example 345, tert-Butyl 3-{[4-({[6-(3-fluorophenyl)pyridin-3-yl]carbonyl}amino)piperidin-1-yl]methyl}pyrrolidine-1-carboxylate]
4.07 nM	CC(C)(C)C(=O)Nc1ncccc1CN1CCC(NC(=O)c2ccc(-c3cccc(F)c3)nc2)CC1 [Example 346, N-[1-({2-[(2,2-Dimethylpropanoyl)amino]pyridin-3-yl}methyl)piperidin-4-yl]-6-(3-fluorophenyl)nicotinamide]
0.578 nM	CC(C)(CNC(=O)OC(C)(C)C)CN1CCC(NC(=O)c2ccc(-c3cccc(F)c3)nc2)CC1 [Example 347, tert-Butyl {3-[4-({[6-(3-fluorophenyl)pyridin-3-yl]carbonyl}amino)piperidin-1-yl]-2,2-dimethylpropyl}carbamate]
0.612 nM	O=C(NC1CCN(Cc2c(F)c(F)cc(F)c2F)CC1)c1ccc(-c2cccc(F)c2)nc1 [Example 348, 6-(3-Fluorophenyl)-N-[1-(2,3,5,6-tetrafluorobenzyl)piperidin-4-yl]nicotinamide]
2.96 nM	O=C(NC1CCN(Cc2c[nH]c3c(F)c(F)c(F)c(F)c23)CC1)c1ccc(-c2cccc(F)c2)nc1 [Example 349, 6-(3-Fluorophenyl)-N-{1-[(4,5,6,7-tetrafluoro-1H-indol-3-yl)methyl]piperidin-4-yl}nicotinamide]
0.247 nM	O=C(NC1CCN(CC2CCOC2)CC1)c1ccc(-c2cccc(F)c2)nc1 (stereo not drawn) [Example 350, 6-(3-Fluorophenyl)-N-[1-(tetrahydrofuran-3-ylmethyl)piperidin-4-yl]nicotinamide]
